Values of other authors in patent US20070020305A1, “Attractant for monitoring or controlling female stored product moths” (Board of Regents for Oklahoma State University, priority 2004, published 2007).

Test system: stored product moths
Conditions: for Attraction of females and males: Indianmeal moth and Mediterranean flour moth, Toth et al. 2002

Row | Structure (SMILES) | Attraction of females and males | Attractiveness to stored product moths, in words (background statement)
1 | CC(=O)O [acetic acid] | would attract females and males | 
2 | CCCCC/C=C\C=C\C(=O)OCC [ethyl-decdienoate] |  | not attractive
3 | CC(C)CCO [isoamyl alcohol] | would attract females and males | 
